Results: US20060166969A1, “AMPA antagonists for the treatment of dizziness, including vertigo and Meniere's disorder” (priority 2005, published 2006)

Legend:
[1] = system: dizziness, including vertigo and Menière's disorder; experiment: Animal models for dizziness, including vertigo and Menière's disorder; type: in vivo; settings: animal models not specified; no data given
Text: Animal models for dizziness, vertigo and Menière's disorder include, but are not limited
Electronystagmography in rats (see Fischer, A. J. et al., “Electronystagmography in the laboratory rat”, Acta Otolaryngol., 88, 412-419,1979).
Gentamycin induced nystagmus in guinea pigs (see Okuda, T. et al., “Inner ear changes with intracochlear gentamicin administration in Guinea pigs”, Laryngoscope, 114, 694-697, 2004).
Unilateral peripheral vestibular deafferentation in guinea pigs (see Dutia, M. B. et al., “The opioid receptor antagonist, naloxone, enhances ocular motor compensation in guinea pig following peripheral vestibular deafferentation”, Exp. Neurol., 141,141-144,1996), or rats (see Guilding, C. et al., “11-Beta-hydroxysteroid dehydrogenase type 1 activity in medial vestibular nucleus and cerebellum after unilateral vestibular deafferentation in the rat”, Stress, 7(2),127-130, 2004).
Unilateral labyrinthectomy in rats (see Johnston, A. R. et al., “Differential regulation of GABA(A) and GABA(B) receptors during vestibular compensation”, Neuroreport.;12(3), 597-600, 2001; and Inoue, S. et al., “Glutamate release in the rat medial vestibular nucleus following unilateral labyrinthectomy using in vivo microdialysis”, Brain Res., 991(1-2), 78-83, 2003). […]

[2] = system: AMPA receptors; settings: qualitative statement; affinity for AMPA receptors said to have been published; cited from earlier work

SMILES: Cc1nc2n(c1C)N=C(c1ccccc1)c1cc3c(cc1C2)OCO3 [8,9-dimethyl-5-phenyl-11H-1,3-dioxolo[4,5-h]imidazo[1,2-c][2,3]benzo-diazepine]
- activity in animal models for dizziness, including vertigo and Menière's disorder [1]: active
- AMPA receptor antagonistic activity [2]: AMPA receptor antagonistic activity
